From ChEMBL document CHEMBL5370544, “Design, synthesis, and biological evaluation of 1-styrenyl isoquinoline derivatives for anti-hepatocellular carcinoma activity and effect on mitochondria” (Eur J Med Chem, 2023)
pIC50: −log10 of the molar value. Active and inactive are the calls of the source.

Key:
[1] = test system: HCCLM9; assay: Antiproliferative activity against human HCCLM9 cells assessed as inhibition of cell growth measured after 72 hrs by MTT assay; assay type: functional, cell-based; settings: HCCLM9, 72 h
[2] = test system: SK-HEP1; assay: Antiproliferative activity against human SK-HEP1 cells assessed as inhibition of cell growth measured after 72 hrs by MTT assay; assay type: functional, cell-based
[3] = test system: Huh-7; assay: Antiproliferative activity against human Huh-7 cells assessed as inhibition of cell growth measured after 72 hrs by MTT assay; assay type: functional, cell-based
[4] = test system: HepG2; assay: Antiproliferative activity against human HepG2 cells assessed as inhibition of cell growth measured after 72 hrs by MTT assay; assay type: functional, cell-based; settings: HepG2, 72 h
[5] = test system: Huh-7; assay: Inhibition of colony formation in human Huh-7 cells assessed as reduction in number of cell colonies at 0.55 to 2.2 uM measured after 10 and 14 days by crystal violet staining based light microscopic analysis; assay type: functional; settings: dose 0.55-2.2 µM, time 14.0 day
[6] = test system: SK-HEP1; assay: Antiproliferative activity against human SK-HEP1 cells assessed as reduction in ratio of EdU-positive cells measured after 24 hrs by EdU incorporation assay; assay type: functional, cell-based; settings: dose 1.25-5 µM
[7] = test system: Huh-7; assay: Induction of cell cycle arrest in human Huh-7 cells assessed as decrease in cyclin A expression incubated for 48 hrs by Western blotting analysis; assay type: functional, cell-based; settings: dose 0.9-8.1 µM
[8] = test system: SK-HEP1; assay: Induction of cell cycle arrest in human SK-HEP1 cells assessed as decrease in cyclin B1 expression incubated for 48 hrs by Western blotting analysis; assay type: functional, cell-based; settings: dose 1.5-13.5 µM
[9] = test system: SK-HEP1; assay: Inhibition of cell migration in human SK-HEP1 cells incubated for 24 hrs by scratch wound healing assay; assay type: functional, cell-based; settings: dose 1.25-5 µM
[10] = test system: Huh-7; assay: Inhibition of cell migration in human Huh-7 cells at 0.55 to 2.2 uM incubated for 24 hrs by crystal violet staining based transwell migration assay; assay type: functional; settings: dose 0.55-2.2 µM
[11] = test system: Huh-7; assay: Antiinvasive activity in human Huh-7 cells assessed as reduction in number of invasive cells at 0.55 to 2.2 uM incubated for 24 hrs by transwell invasion assay; assay type: functional, cell-based; settings: dose 0.55-2.2 µM
[12] = test system: Huh-7; assay: Antimigratory activity against human Huh-7 cells assessed as up-regulation of E-cadherin expression at 0.55 to 2.2 uM incubated 24 hrs by Western blotting analysis; assay type: functional, cell-based; settings: dose 0.55-2.2 µM
[13] = test system: Huh-7; assay: Induction of apoptosis in human Huh-7 cells assessed as cell membrane blebbing at 0.9 to 8.1 uM incubated for 24 hrs by giemsa staining based micrscopic analysis; assay type: functional; settings: dose 0.9-8.1 µM
[14] = test system: Huh-7; assay: Induction of apoptosis in human Huh-7 cells assessed as nuclear membrane breakdown at 0.9 to 8.1 uM incubated for 24 hrs by giemsa staining based micrscopic analysis; assay type: functional, cell-based; settings: dose 0.9-8.1 µM
[15] = test system: SK-HEP1; assay: Induction of apoptosis in human SK-HEP1 cells assessed as cell shrinkage at 1.5 to 13.5 uM incubated for 24 hrs by giemsa staining based micrscopic analysis; assay type: functional; settings: dose 1.5-13.5 µM
[16] = test system: SK-HEP1; assay: Induction of apoptosis in human SK-HEP1 cells assessed as cell membrane blebbing at 1.5 to 13.5 uM incubated for 24 hrs by giemsa staining based micrscopic analysis; assay type: functional; settings: dose 1.5-13.5 µM
[17] = test system: SK-HEP1; assay: Induction of apoptosis in human SK-HEP1 cells assessed as chromatin condensation at 1.5 to 13.5 uM incubated for 24 hrs by giemsa staining based micrscopic analysis; assay type: functional, cell-based; settings: dose 1.5-13.5 µM
[18] = test system: SK-HEP1; assay: Induction of apoptosis in human SK-HEP1 cells assessed as nuclear membrane breakdown at 1.5 to 13.5 uM incubated for 24 hrs by giemsa staining based micrscopic analysis; assay type: functional, cell-based; settings: dose 1.5-13.5 µM
[19] = test system: SK-HEP1; assay: Induction of apoptosis in human SK-HEP1 cells assessed as formation of apoptotic bodies at 1.5 to 13.5 uM incubated for 24 hrs by giemsa staining based micrscopic analysis; assay type: functional, cell-based; settings: dose 1.5-13.5 µM
[20] = test system: Huh-7; assay: Induction of apoptosis in human Huh-7 cells assessed as increase in proportion of early apoptosis at 0.9 to 8.1 uM incubated for 24 hrs by Annexin V-AbFluor 488/propidium iodide staining based flow cytometry analysis; assay type: functional, cell-based; settings: dose 0.9-8.1 µM
[21] = test system: Huh-7; assay: Induction of apoptosis in human Huh-7 cells assessed as increase in proportion of late apoptosis at 0.9 to 8.1 uM incubated for 24 hrs by Annexin V-AbFluor 488/propidium iodide staining based flow cytometry analysis; assay type: functional, cell-based; settings: dose 0.9-8.1 µM
[22] = test system: SK-HEP1; assay: Induction of apoptosis in human SK-HEP1 cells assessed as increase in proportion of late apoptosis at 1.5 to 13.5 uM incubated for 24 hrs by Annexin V-AbFluor 488/propidium iodide staining based flow cytometry analysis; assay type: functional, cell-based; settings: dose 1.5-13.5 µM
[23] = test system: Huh-7; assay: Induction of mitochondrial membrane potential depolarization in human Huh-7 cells incubated for 24 hrs by TMRE staining based flow cytometry analysis; assay type: functional, cell-based; settings: dose 0.9-8.1 µM
[24] = test system: Huh-7; assay: Induction of ROS production in human Huh-7 cells assessed as increase in intracellular ROS level at 0.9 to 8.1 uM incubated for 24 hrs by DCFH-DA staining based fluorescence assay; assay type: functional, cell-based; settings: dose 0.9-8.1 µM
[25] = test system: Huh-7; assay: Induction of apoptosis in human Huh-7 cells assessed as increase in cleaved caspase-3 expression at 0.9 to 8.1 uM incubated for 48 hrs by Western blotting analysis; assay type: functional, cell-based; settings: dose 0.9-8.1 µM
[26] = test system: Huh-7; assay: Induction of apoptosis in human Huh-7 cells assessed as increase in cleaved caspase-9 expression at 0.9 to 8.1 uM incubated for 48 hrs by Western blotting analysis; assay type: functional, cell-based; settings: dose 0.9-8.1 µM
[27] = test system: SK-HEP1; assay: Induction of apoptosis in human SK-HEP1 cells assessed as inhibition of caspase-3 expression incubated for 48 hrs by Western blotting analysis; assay type: functional, cell-based; settings: dose 1.5-13.5 µM
[28] = test system: SK-HEP1; assay: Induction of apoptosis in human SK-HEP1 cells assessed as increase in Bax expression at 1.5 to 13.5 uM incubated for 48 hrs by Western blotting analysis; assay type: functional, cell-based; settings: dose 1.5-13.5 µM
[29] = test system: SK-HEP1; assay: Induction of apoptosis in human SK-HEP1 cells assessed as increase in cytochrome-C expression at 1.5 to 13.5 uM incubated for 48 hrs by Western blotting analysis; assay type: functional, cell-based; settings: dose 1.5-13.5 µM
[30] = test system: SK-HEP1; assay: Induction of apoptosis in human SK-HEP1 cells assessed as increase in cleaved caspase-3 expression at 1.5 to 13.5 uM incubated for 48 hrs by Western blotting analysis; assay type: functional, cell-based; settings: dose 1.5-13.5 µM
[31] = target: Serine/threonine-protein kinase AKT (Homo sapiens) (UniProt P31751+Q9Y243+P31749); assay: Inhibition of Akt signalling pathway in human Huh-7 cells assessed as inhibition of Akt phosphorylation at 0.9 to 8.1 uM measured after 48 hrs by Western blotting analysis; assay type: cell-based; settings: dose 0.9-8.1 µM
[32] = test system: SK-HEP1; assay: Inhibition of PI3K signalling pathway in human SK-HEP1 cells assessed as inhibition of PI3K phosphorylation at 1.5 to 13.5 uM measured after 48 hrs by Western blotting analysis; assay type: cell-based; settings: dose 1.5-13.5 µM
[33] = target: Serine/threonine-protein kinase mTOR (Homo sapiens) (UniProt P42345); assay: Inhibition of mTOR signalling pathway in human SK-HEP1 cells assessed as inhibition of mTOR phosphorylation at 1.5 to 13.5 uM measured after 48 hrs by Western blotting analysis; assay type: cell-based; settings: dose 1.5-13.5 µM
[34] = test system: Huh-7; assay: Antitumor activity against human Huh-7 cells xenografted in ip dosed BALB/c mouse assessed as reduction in tumor weight measured after 14 days; assay type: functional, organism-based; settings: dose 15-30 mg/kg, time 14.0 day
[35] = Acute toxicity in BALB/c mouse assessed as change in body weight at 650 mg/kg, ip measured after 14 days; assay type: organism-based; settings: in vivo, 336 h, time 14 day
[36] = Acute toxicity in BALB/c mouse assessed as change in body weight at 650 mg/kg, ip measured at day 2; assay type: organism-based; settings: in vivo, 48 h, time 2 day

Chain of Serine/threonine-protein kinase AKT (Homo sapiens) (P31749 whole entry, looked up): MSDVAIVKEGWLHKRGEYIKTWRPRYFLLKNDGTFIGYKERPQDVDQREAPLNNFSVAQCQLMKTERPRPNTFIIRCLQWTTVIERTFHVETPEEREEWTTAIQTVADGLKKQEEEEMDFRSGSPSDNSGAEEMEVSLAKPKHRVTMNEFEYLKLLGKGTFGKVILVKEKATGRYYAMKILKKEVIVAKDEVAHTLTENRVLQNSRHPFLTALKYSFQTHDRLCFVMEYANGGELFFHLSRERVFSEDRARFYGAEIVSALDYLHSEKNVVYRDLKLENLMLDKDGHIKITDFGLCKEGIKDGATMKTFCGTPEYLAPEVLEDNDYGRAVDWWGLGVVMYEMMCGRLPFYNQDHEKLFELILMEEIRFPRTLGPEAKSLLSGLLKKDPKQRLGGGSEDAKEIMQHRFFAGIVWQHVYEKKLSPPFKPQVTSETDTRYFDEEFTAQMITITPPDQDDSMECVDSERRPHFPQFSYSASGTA
Chain of Serine/threonine-protein kinase AKT (Homo sapiens) (P31751 whole entry, looked up): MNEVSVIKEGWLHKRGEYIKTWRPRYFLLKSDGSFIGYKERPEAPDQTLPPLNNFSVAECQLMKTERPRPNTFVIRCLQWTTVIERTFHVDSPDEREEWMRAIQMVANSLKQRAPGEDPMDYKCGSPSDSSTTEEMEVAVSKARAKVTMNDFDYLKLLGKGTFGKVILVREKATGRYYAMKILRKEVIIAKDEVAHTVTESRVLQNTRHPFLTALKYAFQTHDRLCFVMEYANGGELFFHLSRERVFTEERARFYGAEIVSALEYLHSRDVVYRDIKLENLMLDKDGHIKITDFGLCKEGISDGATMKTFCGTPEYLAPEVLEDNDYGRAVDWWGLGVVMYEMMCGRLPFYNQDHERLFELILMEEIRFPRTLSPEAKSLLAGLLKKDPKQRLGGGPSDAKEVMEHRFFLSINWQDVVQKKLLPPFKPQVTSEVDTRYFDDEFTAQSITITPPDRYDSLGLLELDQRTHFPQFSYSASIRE
Chain of Serine/threonine-protein kinase AKT (Homo sapiens) (Q9Y243 whole entry, looked up): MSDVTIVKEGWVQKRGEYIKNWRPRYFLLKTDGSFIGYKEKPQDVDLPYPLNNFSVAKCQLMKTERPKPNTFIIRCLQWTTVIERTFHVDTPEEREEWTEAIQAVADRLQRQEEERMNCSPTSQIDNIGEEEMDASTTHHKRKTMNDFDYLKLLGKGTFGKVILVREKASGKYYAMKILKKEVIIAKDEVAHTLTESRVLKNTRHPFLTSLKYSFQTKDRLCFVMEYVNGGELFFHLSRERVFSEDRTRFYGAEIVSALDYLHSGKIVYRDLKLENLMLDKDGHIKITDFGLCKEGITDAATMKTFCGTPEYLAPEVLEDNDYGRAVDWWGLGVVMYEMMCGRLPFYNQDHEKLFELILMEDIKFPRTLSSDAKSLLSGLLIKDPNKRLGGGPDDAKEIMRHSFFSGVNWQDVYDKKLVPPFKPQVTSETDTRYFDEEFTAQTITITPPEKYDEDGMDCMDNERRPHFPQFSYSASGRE

CC(=O)Oc1ccccc1/C=C/c1nccc2ccccc12
5.21: pIC50 [1]
active: Activity [2] Dose-Dependent Effect | Activity [3] Dose-Dependent Effect | inhibition [5] | Activity [6] Dose-Dependent Effect | Activity [7] Dose-Dependent Effect | Activity [8] Dose-Dependent Effect | inhibition [9] Dose-Dependent Effect | inhibition [10] | Activity [11] | Activity [12] | Activity [13] | Activity [14] | Activity [15] | Activity [16] | Activity [17] | Activity [18] | Activity [19] | Activity [20] | Activity [21] | Activity [22] | Activity [23] Dose-Dependent Effect | Activity [24] | Activity [25] | Activity [26] | Activity [27] Dose-Dependent Effect | Activity [28] | Activity [29] | Activity [30] | inhibition [31] | inhibition [32] | inhibition [33] | Activity [34] Dose-Dependent Effect
Toxic: Activity [36]
5.38: pIC50 ([2]; SK-HEP1, 72 h)
5.60: pIC50 ([3]; Huh-7, 72 h)
Non-Toxic: Activity [35]
5.01: pIC50 [4]
